Consider two compounds from US12247037B2, “1-(2,6-diazaspiro[3.3]heptan-6-yl)-5,6-dihydro-4h-benzo[f][1,2,4]triazolo[4,3-A][1,4]diazepine derivatives and related compounds as vasopressin antagonists for the treatment of neuro-psychological disorders” (Neumora Therapeutics, Inc., priority 2018, dated 2025).

The target of data set [1] is T1, human Arginine Vasopressin Receptor V2 (AVPR2) (Homo sapiens, UniProt P30518).
T1 construct: host or cells: 1321N1 cells (cAMPZen V2 assay ready cells)
As to the kind of experiment: Vasopressin V2 receptor antagonist assay (TR-FRET cAMP, 1321N1 cells). It is filed as cell-based. Background: In TR-FRET formats the signal depends on donor and acceptor labels being close together.
Experimental: The purpose of the assay is to determine the inhibitory effect of synthesized compounds on the Vasopressin receptor 2. […] Arginine Vasopressin (AVP) evokes an increase in intracellular cAMP in these cells which is measured in a TR-FRET assay using a Europium cAMP tracer and ULight labelled antibody reagents contained in a LANCE Ultra cAMP kit (Perkin Elmer #TRF0263). […] Test compounds are assessed for their ability to affect the magnitude of the response to AVP, with antagonists showing a concentration-dependent decrease in the AVP-mediated reduction in TR-FRET signal.
cAMPZen V2 assay ready cells are thawed at 37° C. and resuspended directly from frozen in 9 ml growth medium consisting of DMEM supplemented with 10% v/v fetal bovine serum, 1× non-essential amino acids, and 1 mM sodium pyruvate. […] The pellet is resuspended in 5 ml stimulation buffer and the cell density determined using the Vi-Cell automated cell counter. The cell suspension is diluted to a 0.2×10^6/ml suspension ready for plating. […]
At the start of each assay day the potency of AVP is assessed and an EC80 concentration determined for subsequent compound profiling. […] After a one hour incubation, plates are ready to be read (signals then remained stable for up to 24 hours). […] At the end of the incubation period, 2.5 μl of AVP in stimulation buffer is added at the previously determined EC80 concentration.

The next data set concerns MDR1 (P-glycoprotein). In words: in vitro. Particulars: dog, MDCK-MDR1.
The target of data set [2] is T2, human Arginine Vasopressin Receptor 1a (AVPR1a) (Homo sapiens, UniProt P37288).
T2 construct: expressed in transfected cells; host or cells: CHO (Chinese Hamster Ovary) cells, kept under G418 selection
T2 sequence (P37288 whole entry): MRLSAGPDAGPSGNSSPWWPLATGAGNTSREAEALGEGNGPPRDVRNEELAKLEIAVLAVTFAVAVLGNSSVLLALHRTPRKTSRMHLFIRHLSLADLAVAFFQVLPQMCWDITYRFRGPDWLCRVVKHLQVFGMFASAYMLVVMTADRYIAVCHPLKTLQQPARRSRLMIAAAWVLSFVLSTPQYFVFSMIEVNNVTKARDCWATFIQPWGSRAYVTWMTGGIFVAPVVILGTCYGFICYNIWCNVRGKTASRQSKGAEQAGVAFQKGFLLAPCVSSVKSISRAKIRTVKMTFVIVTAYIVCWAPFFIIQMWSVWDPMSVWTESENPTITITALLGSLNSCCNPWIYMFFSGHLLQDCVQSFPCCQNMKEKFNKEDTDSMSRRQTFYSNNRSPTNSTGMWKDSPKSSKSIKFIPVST
In words: Vasopressin V1a receptor antagonist assay (FLIPR calcium, CHO-AVPR1a cells). It is filed as cell-based.
Experimental: The purpose of this assay is to determine the inhibitory effect of synthesized compounds on the Vasopressin V1a receptor. The assay is performed in Chinese Hamster Ovary (CHO) cells expressing the human Arginine Vasopressin Receptor 1a (AVPR1a). Arginine Vasopressin (AVP) evokes an increase in intracellular calcium in CHO-AVPR1a cells which is measured in a fluorescence assay on the FLIPR^TETRA using calcium sensitive dyes. Test compounds are assessed for their ability to affect the magnitude of the response to AVP, with antagonists showing a concentration-dependent reduction in the AVP-mediated fluorescence. Compounds are tested in duplicate in a 10-point, 1:3 dilution series starting at a nominal concentration of 3 μM in the assay. […]
On day one, cells are harvested from T175 flasks when they are 80-90% confluent by first washing the cell monolayer with PBS and then dissociated using trypsin 0.05%/EDTA (3 mL for a T175 Flask). […] To the cell suspension, 10 ml of growth media is added and the cell density determined using the Vi-Cell automated cell counter. […]
At the start of each assay day, the potency of AVP is assessed and an EC80 concentration determined for subsequent compound profiling. […] At the end of the incubation period, 10 μl of AVP in assay buffer containing 0.1% BSA is added at the previously determined EC80 concentration.

Data set [3] concerns the target T3, human Oxytocin Receptor (hOTR) (Homo sapiens, UniProt P30559).
T3 construct: host or cells: CHEM-1 cells (ready-to-assay frozen cells)
T3 sequence (P30559 1-389): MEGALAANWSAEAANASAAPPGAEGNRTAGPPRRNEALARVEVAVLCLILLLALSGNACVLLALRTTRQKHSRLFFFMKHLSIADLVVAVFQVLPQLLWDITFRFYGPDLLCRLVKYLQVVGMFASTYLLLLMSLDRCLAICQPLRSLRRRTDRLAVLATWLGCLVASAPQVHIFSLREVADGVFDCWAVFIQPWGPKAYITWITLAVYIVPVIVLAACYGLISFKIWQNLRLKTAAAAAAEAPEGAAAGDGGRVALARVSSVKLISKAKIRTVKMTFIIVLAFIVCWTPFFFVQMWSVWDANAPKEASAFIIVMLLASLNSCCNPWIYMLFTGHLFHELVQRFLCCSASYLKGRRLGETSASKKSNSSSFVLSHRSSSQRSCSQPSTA
In words: Oxytocin receptor antagonist assay (FLIPR calcium, CHEM-1-hOTR cells). Type of data set: cell-based. To be noted: antagonism of oxytocin (EC80) response; read-out: OT IC50. As to the method: This assay is performed in CHEM-1 cells expressing the human Oxytocin Receptor (hOTR) to determine the inhibitory effect of the compounds of the invention on the human Oxytocin receptor. Oxytocin evokes an increase in intracellular calcium in CHEM-1-hOTR cells which is measured in a fluorescence assay on the FLIPR^TETRA using calcium sensitive dyes. Test compounds are assessed for their ability to affect the magnitude of the response to oxytocin, with antagonists showing a concentration-dependent reduction in the oxytocin-mediated fluorescence.
CHEM-1-hOTR ready is used to assay frozen cells (Eurofins #HTS090RTA) which are supplied with a proprietary Media Component.
Day 1 of the assay: Cells are thawed in a 37° C. water bath and diluted with the supplied Media Component to a final volume of 10 ml. The cell suspension is centrifuged at 1000 rpm for 3 min at room temperature and the supernatant is discarded. […]
Day 2: At the start of each assay day the potency of oxytocin is assessed and an EC80 concentration is determined for subsequent compound profiling. […] Changes in fluorescence are monitored for 3 min after both additions on the FLIPR^TETRA using 470-495 nm excitation and 515-575 nm emission wavelengths. […] At the end of the incubation period 10 μl of oxytocin in assay buffer containing 0.1% BSA is added at the previously determined EC80 concentration. […]

A further data set is described as follows: in vitro. Particulars: dog, MDCK.
The target in data set [4] is T4, human Arginine Vasopressin Receptor 1b (AVPR1b) (Homo sapiens, UniProt P47901).
T4 construct: expressed in transfected cells; host or cells: CHO (Chinese Hamster Ovary) cells, kept under G418 selection
T4 sequence (P47901 1-424): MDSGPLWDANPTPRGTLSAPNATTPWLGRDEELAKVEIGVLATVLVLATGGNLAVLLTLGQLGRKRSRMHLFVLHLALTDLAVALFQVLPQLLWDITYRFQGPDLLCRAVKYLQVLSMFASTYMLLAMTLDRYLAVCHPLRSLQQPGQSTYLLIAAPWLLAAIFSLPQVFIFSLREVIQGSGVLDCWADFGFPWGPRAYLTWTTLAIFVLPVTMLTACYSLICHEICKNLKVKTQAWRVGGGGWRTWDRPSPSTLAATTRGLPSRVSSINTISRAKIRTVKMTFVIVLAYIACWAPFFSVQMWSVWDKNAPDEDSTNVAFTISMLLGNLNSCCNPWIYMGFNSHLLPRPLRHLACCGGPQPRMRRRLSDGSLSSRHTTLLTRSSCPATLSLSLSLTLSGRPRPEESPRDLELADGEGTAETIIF
As to the kind of experiment: Vasopressin V1b receptor antagonist assay (FLIPR calcium, CHO-AVPR1b cells). Type of data set: cell-based. Particulars: antagonism of AVP (EC80) response. On the procedure:
The purpose of the assay is to determine the inhibitory effect of synthesized compounds on the Vasopressin V1b receptor. The assay is performed in Chinese Hamster Ovary (CHO) cells expressing the human Arginine Vasopressin Receptor 1b (AVPR1b). Arginine Vasopressin (AVP) evokes an increase in intracellular calcium in CHO-AVPR1b cells which is measured in a fluorescence assay on the FLIPR^TETRA using calcium sensitive dyes. Test compounds are assessed for their ability to affect the magnitude of the response to AVP, with antagonists showing a concentration-dependent reduction in the AVP-mediated fluorescence.
CHO-AVPR1b cells are maintained in routine culture in T175 Flasks at 37° C., 5% CO2. […]
Cells are harvested from T175 flasks when they are 80-90% confluent by first washing the cell monolayer with PBS and then dissociated using trypsin 0.05%/EDTA (3 mL for a T175 Flask). […] To the cell suspension, 10 ml of growth media is added and the cell density determined using the Vi-Cell automated cell counter. […]
At the start of each assay day, the potency of AVP is assessed and an EC80 concentration determined for subsequent compound profiling. […] Changes in fluorescence are monitored for 3 min after both additions on the FLIPR^TETRA using 470-495 nm excitation and 515-575 nm emission wavelengths. […]

Structures are written as SMILES. Where two headings read alike, the source gives them in different places. Where only a bound is given, the exact number is not on record here.

T1 sequence (P30518 whole entry): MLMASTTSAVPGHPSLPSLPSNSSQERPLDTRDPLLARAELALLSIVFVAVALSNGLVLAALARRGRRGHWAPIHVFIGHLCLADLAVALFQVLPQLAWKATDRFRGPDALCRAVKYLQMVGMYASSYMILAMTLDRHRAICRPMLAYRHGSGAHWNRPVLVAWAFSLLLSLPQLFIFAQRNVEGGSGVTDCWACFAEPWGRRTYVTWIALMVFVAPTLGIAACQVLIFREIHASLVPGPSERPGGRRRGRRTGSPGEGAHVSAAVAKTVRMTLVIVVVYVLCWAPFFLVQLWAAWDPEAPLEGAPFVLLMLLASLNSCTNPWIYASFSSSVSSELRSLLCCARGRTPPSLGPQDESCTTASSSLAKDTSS

For orientation: IC50 means the concentration needed to halve the response being measured. As a reminder, the Papp A→B is how fast a substance crosses the layer from the apical side. Low values mean slow passage, high ones fast passage. For the compound `Clc1ccc2c(c1)CN(C1CC1)Cc1nnc(N3CC4(CN(c5ncccn5)C4)C3)n1-2` [Compound No. 225, 8-chloro-5-cyclopropyl-1-(6-(pyrimidin-2-yl)-2,6-diazaspiro[3.3]heptan-2-yl)-5,6-dihydro-4H-benzo[f][1,2,4]triazolo[4,3-a][1,4]diazepine], the 50% inhibitory concentration (IC50) in data set [1] was more than 1000 nM; in data set [2] it was less than 100 nM. In addition, in the data set with MDR1 (P-glycoprotein), the apical-to-basolateral permeability (Papp A→B) was more than 20 ×10⁻⁶ cm/s.

For the compound `CN1Cc2cc(Cl)ccc2-n2c(nnc2[C@H]2CC[C@H](Oc3ccccn3)CC2)C1` [balovaptan], the half-inhibitory concentration (IC50) in data set [3] is more than 1000 nM; in data set [4] it was more than 1000 nM; in data set [2] (antagonism of AVP (EC80) response, read-out: V1a IC50), less than 100 nM. Further, the apical-to-basolateral permeability (Papp A→B) with MDR1 (P-glycoprotein) is more than 20 ×10⁻⁶ cm/s; in the data set “in vitro”, 10 to 20 ×10⁻⁶ cm/s.
